Where “and” joins values, the source holds several entries; their conditions need not be identical. Equal values may be shown once. Read-outs that look alike come from different tables or passages of the source.
Key:
[1] = cited from earlier work
[2] = tested on: rats; settings: cited from earlier work
[3] = NMRD profile / relaxometric measurements (1H longitudinal relaxivity, incl. temperature and pH dependence); format: physicochemical; settings: for R1p: 20 MHz and 25° C.; for relaxivity (NMRD profile): 20 MHz, 7.2 pH and 25° C.; for rGdH / Δ^2 / τr / τv: fitting parameter, NMRD profile
Description: Relaxivity is used to describe the efficiency of a paramagnetic substance in increasing the water longitudinal relaxation rate. NMRD profiling is a direct method of measuring the proton relaxivity, and in principle it is sensitive to all of the parameters that influence relaxivity. It is the nuclear relaxation rate (1/T1) as a function of the Larmor frequency or the magnetic field, and describes the excess longitudinal proton relaxation that is caused by the presence of contrast agents as a function of the magnetic field using a field-cycling technique. The NMRD profile can probe the relaxivity mechanisms and understand how changes in the chemical structure of the complex interfere with them. The change in experimental parameters such as temperature and pressure influences the physical or chemical state of the sample, but the variation of the magnetic field has no influence on the chemistry of the sample. Thus, NMRD is a useful technique in the understanding of the numerous physiochemical parameters that determine the field dependence of proton relaxivities. The innersphere, outersphere, and second sphere contribute to the overall relaxivity and are influenced by numerous parameters, which are too complex to be well-defined by a single NMRD study; usually, reference to independent ^17O NMR relaxation rates and chemical shift is made. By the equations 2-7, several parameters that are related to the outersphere, and innersphere relaxation, such as the hydration number q, the τm, τR, τv, Δ^2, and rGdH, can be estimated.
As shown in FIGS. 5-8, all complexes have one innersphere water molecule. At low field, the electronic relaxation dominates the dipole-dipole correlation time for innersphere relaxivity and results in the first dispersion at around a […] proton Larmor frequency, while at high field, rotation relaxation dominates and the dispersion is at around 30 MHz. The higher relaxivity as compared to the clinical agents is postulated to the longer reorientational correlation time τR and the shorter rGdH. Relaxivity has a dependence on the τR at 20 MHz, which is determined by the molecular dimension.
The temperature and pH dependence of the longitudinal relaxivity were measured to study the tolerance of the complex under different physiological conditions (see FIGS. 9-10). At the low temperature under the slow exchange rate (τm>>T1M) a relatively longer τm is insignificant. The innersphere quenching is not severed and is not dominated by the outersphere mechanism at 273-278 K. Beyond 278 K the innersphere contribution increases up to 288 K. This is the τm≈T1M region, where the onset of the innersphere and the slow water exchange is not interfered with. From 288 K to 330 K, there is a gradual drop in the relaxivity due to the increase in D and T1M which causes both the innersphere and outersphere relaxivities to fall under the fast exchange condition (τm<<T1M). The relaxivity is 4.93 mM^−1s^−1at physiological temperature. […] The structural arrangement around the metal centre is not severely distorted, which allows a high stability against different pH.
NMRD profiles measure the longitudinal water proton relaxation rate as a function of magnetic fields. Measurements were performed by a Spinmaster FFC fast field cycling NMR relaxometer that covered a continuum of magnetic fields from 0.00024 to 0.47 T. The temperature was controlled by circulating Freon from an external bath and measured by a thermometer that was inserted into the Freon close to the sample. The relaxometer worked under complete control with the reproducibility of the measured T1 values estimated to be ±2%. The NMRD profiles were acquired for a 1-2 mM solution of the complex. Xylenol orange test was employed to check the absence of free Gd(III).

[4] = Variable-temperature 17O NMR transverse relaxation (water exchange); format: physicochemical; settings: for τm: fitting parameter, 17O transverse relaxivity study
Experimental: Further investigation into the transverse relaxivity changes against temperature as shown in FIG. 6 was performed to determine the exchange rate. The maximum appears at a lower temperature, which implies a faster water exchange rate. The water exchange rates of the discussed ligands are in the order of Gd-BOPTA (kex=5.0×10^6)>Gd-DTPA (kex=4.0×10^6)>Gd-DOTA (kex=3.3×10^6)>GdL (kex=1.1×10^6). As anionic complexes promote water exchange, the first three complexes are anionic species with faster water exchange rates. GdL is neutral with a lower exchange rate, but with a lower osmolality, and importantly, the highest relaxivity.
Variable-temperature ^17O NMR measurements were recorded on a JEOL EX-90 (2.1 T) spectrometer that was equipped with a 5 mm probe, using D2O for external lock of the magnetic field. Experimental settings were spectral width 10000 Hz, pulse width 7 μs, acquisition time 10 ms, 1000 scans, and no sample spinning. The solution used contained ^17O enriched water (2.6%, Yeda, Israel). The observed transverse relaxation rate (R^O2obs) was calculated from the line width of the resonance at half height (Δν1/2): R^O2obs=πΔν1/2.

[5] = tested on: non-tumorigenic immortalized liver cell line (MIHA); assay: Hepatocellular uptake (ICP-MS of Gd per cell); format: cell-based
Experimental: The non-tumorigenic immortalized liver cell line (MIHA) was grown and incubated in different concentrations of GdL and Gd-BOPTA. The mole of gadolinium uptake per cell under different concentrations of GdL incubation is presented as a function of concentration in FIG. 16. […] The average increase is 7.2×10^−13 mole of Gd per cell (about 1.97 times more than Gd-BOPTA) and the maximum uptake is 3.1×10^−12 mol of Gd per cell at 5 mM. There was no gadolinium ion found in the control experiments in the absence of GdL. The uptake varied slightly at the incubation concentration of less than 0.5 mM and linearly when the concentration increases from 0.5 to 5 mM. […]
The non-tumorigenic immortalized liver cell line (MIHA) (kindly provided by Dr J. R. Chowdhury at the Albert Einstein College of Medicine, New York) was grown in a 96-well plate (polystyrene, flat bottom tissue-culture treated, black with clear bottom) with Dulbecco's modified Eagle's medium (DMEM with 4 mM L-glutamine modified to contain 4.5 g l^−1 glucose and 1.5 g l^−1 sodium bicarbonate) containing 10% Bovine Calf Serum (BCS) in a 5% carbon dioxide incubator. […] The cells were exposed to 100 μl of 0.25% trypsin and harvested, then counted by hemacytometer. […] The samples were analyzed by Agilent 7500a ICP-MS with ICP-MS Top installed.

[6] = tested on: liver; settings: Schima et al., J. Magn. Res. Imaging 1999; cited from earlier work
[7] = tested on: hepatocytes; settings: cited from earlier work
[8] = tested on: hepatocytes; settings: cited from earlier work; remark: listed apart in the source
[9] = versus 0.29 osmol kg^−1 of body fluid; cited from earlier work
[10] = tested on: liver; settings: 0.1 mmol kg^−1 dose, intravenous bolus; cited from earlier work
[11] = 20 MHz, temperature in parentheses: 40

SMILES	Relaxivity [1, 11]	R1p [3] [mM⁻¹ s⁻¹]	rGdH [3] [Å]	Δ^2 [3]	τr [3] [ps]	τv [3] [ps]	water exchange rate kex [4]	τm [4] [ns]	Relaxivity ([1]; 20 MHz and 25° C.)	further results
COCCNC(=O)CN(CCN(CCN(CC(=O)[O-])CC(=O)NCCOC)CC(=O)[O-])CC(=O)[O-].[Gd+3] [Gd-BMEA, gadoversetamide]	4.70 (40) mM^−1 s^−1									
[Gd+3] [Gd(III) aqua ion]										LD50 [2]: 0.1 to 0.2 mmol/kg
CNC[C@H](O)[C@@H](O)[C@H](O)[C@H](O)CO.CNC[C@H](O)[C@@H](O)[C@H](O)[C@H](O)CO.O=C([O-])CN(CCN(CC(=O)[O-])CC(=O)O)CCN(CC(=O)O)C(COCc1ccccc1)C(=O)[O-].[Gd+3] (stereo not shown) [Gd-BOPTA, gadobenate dimeglumine]		5.20	2.96	4.2 E19 s^−1	88	26	5.0×10^6	200	5.2 mM⁻¹ s⁻¹ and 5.20 mM⁻¹ s⁻¹	relaxivity (NMRD profile) [3]: 5.20 mM⁻¹ s⁻¹; dose dependence of uptake [5]: not significant; hepatic intensity enhancement [6]: 55%; percentage of contrast agent excreted ([7]; humans, intravenous injection): over 95%; hepatic (hepatocellular) uptake ([7]; humans): 3-5 % of the injected dose; hepatocellular uptake ([8]; rats): 38.6%
CNC[C@H](O)[C@@H](O)[C@H](O)[C@H](O)CO.CNC[C@H](O)[C@@H](O)[C@H](O)[C@H](O)CO.O=C([O-])CN(CCN(CC(=O)[O-])CC(=O)O)CCN(CC(=O)[O-])CC(=O)O.[Gd+3] [Gd-DTPA, gadopentetate dimeglumine]		4.69	3.10	4.2 E19 s^−1	73	20	4.0×10^6	250	4.69 mM⁻¹ s⁻¹	osmolality [9]: 1.96 osmol kg^−1; tolerance [10]: good tolerance
CNC(=O)CN(CCN(CCN(CC(=O)[O-])CC(=O)NC)CC(=O)[O-])CC(=O)[O-].[Gd+3] [Gd-BMA, gadodiamide]									4.39 mM⁻¹ s⁻¹	
CNC[C@H](O)[C@@H](O)[C@H](O)[C@H](O)CO.O=C([O-])CN1CCN(CC(=O)[O-])CCN(CC(=O)O)CCN(CC(=O)[O-])CC1.[Gd+3] [Gd-DOTA, gadoterate meglumine]		4.73	3.10	1.3 E19 s^−1	73	7.7	3.3×10^6	300	4.73 mM⁻¹ s⁻¹	relaxivity (NMRD profile) [3]: 4.73 mM⁻¹ s⁻¹
CC(O)CN1CCN(CC(=O)[O-])CCN(CC(=O)[O-])CCN(CC(=O)[O-])CC1.[Gd+3] (stereo not shown) [Gd-HP-DO3A, gadoteridol]	3.70 (40) mM^−1 s^−1									
O=C([O-])CN1CCN(CC(=O)[O-])CCN([C@H](CO)[C@H](O)CO)CCN(CC(=O)[O-])CC1.[Gd+3] (racemic) [Gd-DO3A-butrol, gadobutrol]	3.60 (40) mM^−1 s^−1									
CCOc1ccc(C[C@@H](CN(CCN(CC(=O)[O-])CC(=O)[O-])CC(=O)[O-])N(CC(=O)[O-])CC(=O)[O-])cc1.[Gd+3].[Na+].[Na+] [Gd-EOB-DTPA]										hepatic (hepatocellular) uptake ([7]; in vivo): 50 % of the injected dose; hepatocellular uptake ([8]; rat, in vivo): 70%

Source: US7767196B2, “Optimized relaxivity and specificity hepatobiliary MRI contrast agent” (priority 2005, dated 2010)
